Results taken from patent US9173923B2, “Modulating innate immune cell activity by lunasin and selected cytokines” (Indiana University Research & Technology Corporation, priority 2011, dated 2015).

How the values were obtained:
allergic inflammation = test: LPS-induced asthma mouse model; assay type: in vivo, BABL/c mice
Procedure: FIG. 25 Lunasin-treated mice have reduced allergic inflammation in a mouse model of asthma. In LPS-induced asthma model BABL/c mice were sensitized intranasally with 0.1 μg of LPS at day 0, 1, and 2 with (LS) or without (Ctrl) lunasin peptide at 4 mg, and then challenged with 50 μg of OVA on days 19, 20 and 21. Another group of mice (LC) was sensitized as the Ctrl group followed by challenging with OVA in the presence of lunasin at 4mg. The total cell numbers (A) and differential cell numbers of eosinophils (B) were counted from the BAL fluid. Data are presented as mean±SD from 3 mice in each group. *,P<0.05; ns not-significant p>0.05. (C) Cells from draining lympho nodes (mediastinal) were stimulated with OVA, and the levels of IL-4 production in the supernatants were evaluated using ELISA. Data are presented as mean ±SD from 3 mice in each group. ***, P<0.005; ns, not-significant, p>0.05.
In LPS-induced asthma model, BABL/c mice were sensitized intranasally with 0.1 μg of LPS at day 0, 1, and 2 with (LS) or without (Ctrl) lunasin peptide at 4 mg, and then challenged with 50 ug of OVA on days 19, 20, and 21. […] The total cell numbers (A) and differential cell numbers of eosinophils (B) were counted from the BAL fluid. […] (C) Cells from draining lympho nodes (mediastinal) were stimulated with OVA, and the levels of IL-4 production in the supernatants were evaluated using ELISA. […]

human primary NK cells [1] = test: IFNγ production in supernatants of purified NK cells (ELISA); assay type: cell-based; conditions: 1 day
Procedure: (§1) FIG. 1 IFNγ production by primary NK cells following stimulation. Human primary NK cells were isolated from peripheral blood mononuclear cells (PBMCs) of normal controls using positive selection with CD56 magnetic beads (Miltenyi Biotec Auburn. CA). […] At the last 6 hrs of stimulation, golgistop (monensin) was added to block the secretion of IFNγ. Stimulated PBMCs were surface stained with FITC-conjugated CD3 and PE-congugated CD56 monoclonal antibodies (BD), washed, fixed, and permeabilized. After washing, cells were incubated with APC-conjugated anti IFNγ monoclonal antibody. Expression of IFNγ was evaluated on 5000 events of gated CD3 negative and CD56 positive NK cell populations. The % of NK populations producing IFNγ is labeled at the upper right quadrant of the dot plot. (B) IFNγ production in the supernatants. […] The cell pellets from (B) were analyzed for gene expression using qPCR with Taqman Assay primers. […]
FIG. 7 Dose-dependent effects of lunasin on IFNγ production, Human NK cells isolated as described in FIG. 1 were stimulated with IL-12 at 1 or 10 ng/ml in the absence (A) or presence (B) of various concentrations of lunasin. One day following stimulation, The production of IFNg in the supernatants was determined using ELISA. […]
One day following stimulation. The production of IFNg in the supernatants was determined using ELISA. […]

[2] = boiling; cited from earlier work
[3] = system: NK cells isolated from lungs; test: Ifng gene expression in lung NK cells of mice gavaged with lunasin; assay type: in vivo, Balb/c mice; conditions: 4 mg lunasin by gavage for 3 consecutive days
Procedure: FIG 24 Gene expression of Ifng from mice treated with lunasin. Balb/c mice were gavaged with […] of water only (H2O) or 4 mg of lunasin in […] water (Lunasin) for 3 consecutive days. One day after the last gavage. mice were sacrificed to collect the lungs. NK cells were isolated from lungs of each mouse using positive selection with DX5 magnetic beads (Miltenyi Biotec) followed by RNA extraction, cDNA synthesis and real time qPCR using Taqman assay primers (ABI). Gene expression for IFNg (Ifng) from lungs is presented as mean±SD from 2 mice in each group.
Balb/c mice were gavaged with 200 μl of water only (H2O) or 4 mg of lunasin in 200 μl water (Lunasin) for 3 consecutive days. One day after the last gavage, mice were sacrificed to collect the lungs and spleens. NK cells were isolated from each lung and spleen using positive selection with DX5 magnetic beads (Miltenyi Biotec) followed by RNA extraction, cDNA synthesis and real tune qPCR using Taqman assay primers (ABE). Gene expression for Ifng from lungs (upper panel) and spleens (lower pannel) is presented as mean±SD from 2 mice in each group.

[4] = system: peripheral blood mononuclear cells (PBMCs); CD3 negative and CD56 positive NK cell populations; test: Intracellular cytokine staining of IFNγ in stimulated PBMCs of normal controls (flow cytometry); assay type: cell-based, human; conditions: 1 day
Procedure: as §1
Following 1 day of stimulation, distinct cell populations that respond to stimulation were evaluated using intracellular cytokine staining for IFNγ production. […]
Aliquots of PBMCs isolated from healthy volunteer donors were cryopreserved in liquid nitrogen for the following assays. […] Expression of IFNγ was evaluated on 5000 events of gated CD3 negative and CD56 positive NK cell populations. […] The cell pellets were analyzed for gene expression using qPCR with Taqman Assay primers. […]

[5] = cited from earlier work
[6] = system: acetylation of histone H3 and H4; conditions: extracted from autoclaved soybean products or blood of rats fed LES; cited from earlier work
human primary NK cells [7] = test: Gene expression by primary NK cells (real time qPCR, Taqman Assay); assay type: cell-based
Description: FIG. 3 Synergistic effects of lunasin and cytokines on gene expression by human primary NK cells. […] One day following the stimulation, the cell pellets were resuspended in Trizol Reagents for total RNA extraction. The first-strand cDNA was synthesized followed by real time qPCR using Taqman Assay with primers for IFNγ(IFNG), granzyme B (GZMB), granulysin (GNLY), chemokine (C-C motif) ligand 3 or CCL3 (CCL3), CCL4 (CCL4). Granulocyte-macrophage colony-stimulating factor or GM-CSF (CSF2) TGFβ (TGFB) and TGFβ receptor (TGFBR2) in ABI 7300 (Applied Biosystems by Life Technologies, Carlsbad CA) Data are presented as mean±SD from 2 duplicates. Results shown are representative over 5 different normal controls. […]
One day following the stimulation, the cell pellets were resuspended in Trizol Reagents for total RNA extraction. The first-strand cDNA was synthesized followed by real time qPCR using Taqman Assay with primers for IFNγ (IFNG), granzyme B (GZMB), granulysin (GNLY), chemokine (C-C motif) ligand 3 or CCL3 (CCL3), CCL4 (CCL4), Granulocyte-macrophage colony-stimulating factor or GM-CSF (CSF2), TGFβ (TGFB) and TGFβ receptor (TGFBR2) in ABI 7300 (Applied Biosystems by Life Technologies, Carlsbad, Calif.). Data are presented as mean±SD from duplicates. Results shown are representative over 5 different normal controls.
Following 1, 2, and 3 days of stimulation, the cell pellets were lysed in Trizol Reagents for total RNA extraction. The first-strand cDNA was synthesized followed by real time qPCR using Taqman Assay with primer for TGFB1 and TGFBR2 in ABI 7300. Results are presented as mean±SD from duplicates. […]
Freshly isolated human NK cells from peripheral blood mononuclear cells (PBMCs) of normal control using positive selection with CD56 magnetic beads (Miltenyi Biotec, Auburn, Calif.) were stimulated with medium only (−), IL-12 (10 ng/ml) or IL-12 (10 ng/ml)+lunasin (5 μM) for 1 day. The cell pellets were lysed in Trizol Reagents for total RNA extraction. The first-strand cDNA was synthesized followed by real time qPCR using Taqman Assay with primer for inhibitory receptors KIR3DL1 (upper panel) and KIR3DL2 (lower panel) in ABI 7300.

mouse NK cells = test: IFNγ produced by NK cells from tumor-bearing mice with or without etoposide chemotherapy (ELISA); assay type: cell-based; conditions: reduced Stat4; mouse IL-12 2 ng/ml or human IL-2 50 units/ml, lunasin 20 μM; 1 day
Procedure: Mouse NK cells were positively selected from spleens of tumor-bearing mice with (+Eto) or without (−Eto) chemotherapeutic drug etoposide. Isolated NK cells were stimulated with mouse IL-12 at 2 ng/ml with (+) or without (−) lunasin peptide (A) or human IL-2 at 50 units/ml with (+) or without (−) lunasin at 20 μM (B). The production of IFNγ in the supernatant after 1 day of stimulation was determined using ELISA. Results are presented as mean±SD from 3 mice. ND is not detectable.

Row | Molecule | production of IL-4 (allergic inflammation; draining lymph node cells stimulated with OVA, ELISA) | cell counts in the bronchoalveolar lavage (BAL) fluid (allergic inflammation; lunasin 4 mg intranasal) | production of IFNγ in the supernatants (human primary NK cells [1]) | heat stability [2] | gene expression of Ifng in the lung [3] | IFNγ intracellular staining by cell population (NK, CD4 and CD8 T) [4] | distribution of gavaged lunasin ([5]; gavage) | lunasin levels in the blood after oral consumption ([5]; oral) | survival of digestion in the gastrointestinal tract ([5]; oral) | bioactivity after autoclaving or feeding (inhibiting acetylation of histone H3 and H4) [6] | CCL3 gene expression (human primary NK cells [7]; 1 day) | CCL4 gene expression (human primary NK cells [7]; 1 day) | CSF2 (GM-CSF) gene expression (human primary NK cells [7]; 1 day) | GMT gene expression (human primary NK cells [7]; 1 day, lunasin alone) | IFNG gene expression (human primary NK cells [7]; human cells, qPCR) | IFNγ production by NK cells from tumor-bearing mice following chemotherapy (+etoposide) (mouse NK cells) | GZMB (granzyme B) gene expression (human primary NK cells [7]; 1 day, lunasin 20 μM, compared to cytokine alone)
1 | lunasin | reduced production of IL-4 | lower cell counts | moderate effects | heat-stable | increased gene expression of Ifng | NK but not CD4 or CD8 T populations respond | can be found in the lung and blood | Significant levels of lunasin could be detected in the blood | survives digestion in the gastrointestinal tract | still active | sufficient to up-regulate | sufficient to up-regulate | sufficient to up-regulate | no effects | moderate effects |  | 
2 | IL-12 (protein, UniProt P43431 23-215; P43432 23-335, looked up) Interleukin-12 subunit alpha: RVIPVSGPARCLSQSRNLLKTTDDMVKTAREKLKHYSCTAEDIDHEDITRDQTSTLKTCLPLELHKNESCLATRETSSTTRGSCLPPQKTSLMMTLCLGSIYEDLKMYQTEFQAINAALQNHNHQQIILDKGMLVAIDELMQSLNHNGETLRQKPPVGEADPYRVKMKLCILLHAFSTRVVTINRVMGYLSSA Interleukin-12 subunit beta: MWELEKDVYVVEVDWTPDAPGETVNLTCDTPEEDDITWTSDQRHGVIGSGKTLTITVKEFLDAGQYTCHKGGETLSHSHLLLHKKENGIWSTEILKNFKNKTFLKCEAPNYSGRFTCSWLVQRNMDLKFNIKSSSSSPDSRAVTCGMASLSAEKVTLDQRDYEKYSVSCQEDVTCPTAEETLPIELALEARQQNKYENYSTSFFIRDIIKPDPPKNLQMKPLKNSQVEVSWEYPDSWSTPHSYFSLKFFVRIQRKKEKMKETEEGCNQKGAFLVEKTSTEVQCKGGNVCVQAQDRYYNSSCSKWACVPCRVRS |  |  |  |  |  |  |  |  |  |  |  |  |  |  |  | secreted less IFNγ | no further induction of GZMB
